Measured values as given in EP2266984A1, “Pyrido[2,3-d]pyrimidines as Wnt antagonists for treatment of cancer and arthritis” (Deutsches Krebsforschungszentrum Stiftung des öffentlichen …, priority 2009, dated 2010).

How the values were obtained:
[1] = system: human colon carcinoma cells HCT116; experiment: Antiproliferative activity against HCT116, count of Hoechst labeled nuclei; format: cell-based; settings: for Normalized cell count (HCT 116): HCT116 colon carcinoma cells
Method: (§1) For examination of cell line-specific cytotoxicity, compounds were applied to human colorectal cancer cells (HCT116, denoted (1); SW480, denoted (2); Dld-1, denoted (3)) and human fibroblasts (HFF-1, denoted (4); HS-68, denoted (5)), cultured in Mc Coy's (1) and Dulbecco's Modified Eagles Medium ((2)-(5)), supplemented with 10% ((1)-(3)) and 20% ((4), (5)) fetal calf serum and 1% penicillin/streptomycin. Cells were grown in T75 flasks at 37 °C, 5% CO2 and trypsinized when 60-80% confluent by adding 2 ml of 0.25% Trypsin-EDTA solution. Cells were then re-suspended into culture medium yielding approx. 750 cells, suspended in 45 microl medium, were plated into each well of a black 384-well plate for fluorescence imaging experiments. 24 - 36 hr later 5 microl compound solution (100 microM compound dissolved in ultra pure water containing 1% DMSO), were added to achieve a final concentration of 10 microM and were incubated for at least 72 hr. Compound incubation was terminated by (a) fixation and (b) permeabilisation of cells, followed by (c) fluorescence labeling of cell nuclei for cytometric quantification or by immunocytochemistry for microscopic evaluation of cell morphology. The three steps were performed by replacing the solution of the previous step in each well of a 384-well plate by (a) 30 microl PBS (phosphate buffered saline) containing 5% PFA (paraformaldehyde), (b) 30 microl PBS containing 0.2% TritonX-100 and (c) 10 microl PBS containing Hoechst-33342 for cytometry or Hoechst-33342, FITC-(fluorescein isothiocyanate-)labeled alpha-tubulin antibodies and TRITC-(tetramethylrhodamine isothiocyanate-)labeled phalloidin for microscopy. Solutions were incubated for 15 (a,b) and 30 min (c) in the dark at room temperature. Cells were washed twice between each step with 30 microl PBS. The assay system was miniaturized and adapted to automated workflow using liquid-handling robotics.
Cell line-specific cytotoxicity was quantified by counting the number of Hoechst labeled nuclei per well of a 384-well plate using a plate cytometer. Data obtained with the cytometer was analysed using standard data analysis software. […]
The examination of the antiproliferative activity against human colon carcinoma cells HCT116 was carried out in analogy to example 203. […] Compounds of the present invention have potent antiproliferative acivity against human colon carcinoma cells as shown for HCT116 in Table 6.

HS68 = experiment: Cell line specific cytotoxicity, count of Hoechst labeled nuclei, HS68 fibroblasts; format: cell-based, human; settings: for Normalized cell count (HS68): normal cells, at least 72 hr
Method: as §1, with “24 - 36 hr later 5 microl compound solution (100 microM compound dissolved in ultra pure water containing 1% DMSO), were added to achieve a final concentration of 10 microM and were incubated for at least 72 hr.” left out
Cell line-specific cytotoxicity was quantified by counting the number of Hoechst labeled nuclei per well of a 384-well plate using a plate cytometer. Data obtained with the cytometer was analysed using standard data analysis software.
Identified hits were further evaluated by visual inspection of fluorescence micrographs obtained from imaging using a conventional fluorescence microscope.

Wnt signalling pathway = experiment: Wnt-sensitive reporter gene assay (6xTCF-luciferase, pTOP-FLASH) in Hek293T cells; format: cell-based; settings: for Normalized Wnt pathway inhibitory activity: 24 h
Method: To screen for small-molecule modulators of the Wnt signalling pathway, a reporter gene based assay describing the modulation of the TCF4 transcription factor was used. More specifically 4000 Hek293T cells were seeded into 384 high density plates. 24h after seeding a Wnt-sensitive reporter (6xTCF-luciferase (Firefly) (pTOP-FLASH; "Armadillo coactivates transcription driven by the product of the Drosophila segment polarity gene dTCF", Cell, 1997, 88(6), pages 789-99)) and constitutively expressed control reporter (Renilla luciferase pCMV-RL) were transfected into Hek293T. Wnt signaling was stimulated by cotransfecting mouse Wnt1, mouse Frizzled 8 and human LRP6 according to "Casein kinase 1 gamma couples Wnt receptor activation to cytoplasmic signal transduction", Nature, 2005, 438(7069), pages 867-872. 24 h after pathway stimulation compounds were added at a concentration of 10 microM and allowed to incubate for 24 h. For the evaluation of the IC50 the compound was applied in increasing concentrations yielding final concentrations per well of 5nM - 100 microM.

**Q.** How did the “Normalized cell count (HCT 116)” value ([1]; 0.005 microM) turn out when `CCOC(=O)c1c(C)nc2c(c(N3CCN(C/C=C/c4ccccc4)CC3)nc(=O)n2-c2ccccc2)c1-c1ccccc1` [Example 153, 7-Methyl-2-oxo-1,5-diphenyl-4-[4-((E)-3-phenyl-allyl)-piperazin-1-yl]-1,2-dihydro-pyrido[2,3-d]pyrimidine-6-carboxylic acid ethyl ester] was run?
**A.** The value was 1.

**Q.** And the “Normalized cell count (HCT 116)” value ([1]; 0.015 microM)?
**A.** Its value is 0.9124.

**Q.** And the “Normalized cell count (HCT 116)” value ([1]; 0.046 microM)?
**A.** Its value is 0.9327.

**Q.** And the “Normalized cell count (HCT 116)” value ([1]; 0.137 microM)?
**A.** The value was 0.9534.

**Q.** What about the “Normalized cell count (HCT 116)” value ([1]; 0.412 microM) of the same compound?
**A.** The value was 0.8371.

**Q.** And the “Normalized cell count (HCT 116)” value ([1]; 1.235 microM)?
**A.** Its value is 0.7255.

**Q.** What about the “Normalized cell count (HCT 116)” value ([1]; 3.704 microM) of the same compound?
**A.** Its value is 0.538.

**Q.** And the “Normalized cell count (HCT 116)” value ([1]; 11.111 microM)?
**A.** The value was 0.1546.

**Q.** And the “Normalized cell count (HCT 116)” value ([1]; 33.333 microM)?
**A.** Its value is 0.09126.

**Q.** And the “Normalized cell count (HCT 116)” value ([1]; 100.000 microM)?
**A.** Its value is 0.1143.

**Q.** And the IC50 ([1]; Homo sapiens, HCT-116, HCT116, read-out: IC50 of the antiproliferation activity)?
**A.** The IC50 was 3.1 ± 0.6 µM.

**Q.** And the “Normalized cell count (HS68)” value (HS68; 0.005 microM)?
**A.** The value was 1.

**Q.** What about the “Normalized cell count (HS68)” value (HS68; 0.015 microM) of the same compound?
**A.** The value was 1.0005.

**Q.** What about the “Normalized cell count (HS68)” value (HS68; 0.046 microM) of the same compound?
**A.** Its value is 0.9849.

**Q.** And the “Normalized cell count (HS68)” value (HS68; 0.137 microM)?
**A.** The value was 0.9755.

**Q.** What about the “Normalized cell count (HS68)” value (HS68; 0.412 microM) of the same compound?
**A.** Its value is 0.9186.

**Q.** What about the “Normalized cell count (HS68)” value (HS68; 1.235 microM) of the same compound?
**A.** Its value is 0.9639.

**Q.** And the “Normalized cell count (HS68)” value (HS68; 3.704 microM)?
**A.** Its value is 0.9349.

**Q.** What about the “Effect on normal cells (HS-68)” value (HS68; 10 microM, HS-68 cell line) of the same compound?
**A.** The value was “not affected”.

**Q.** And the “Normalized cell count (HS68)” value (HS68; 11.111 microM)?
**A.** Its value is 0.9432.

**Q.** What about the “Normalized cell count (HS68)” value (HS68; 33.333 microM) of the same compound?
**A.** Its value is 0.826.

**Q.** And the “Normalized cell count (HS68)” value (HS68; 100.000 microM)?
**A.** Its value is 0.2108.

**Q.** What about the “Normalized Wnt pathway inhibitory activity” value (Wnt signalling pathway; 0.005 microM) of the same compound?
**A.** Its value is 0.8000.

**Q.** And the “Normalized Wnt pathway inhibitory activity” value (Wnt signalling pathway; 0.046 microM)?
**A.** Its value is 1.0868.

**Q.** And the “Normalized Wnt pathway inhibitory activity” value (Wnt signalling pathway; 0.137 microM)?
**A.** Its value is 0.9813.

**Q.** And the “Normalized Wnt pathway inhibitory activity” value (Wnt signalling pathway; 0.412 microM)?
**A.** Its value is 0.8173.

**Q.** What about the “Normalized Wnt pathway inhibitory activity” value (Wnt signalling pathway; 1.235 microM) of the same compound?
**A.** Its value is 0.5333.

**Q.** And the “Normalized Wnt pathway inhibitory activity” value (Wnt signalling pathway; 3.704 microM)?
**A.** The value was 0.2410.

**Q.** And the “Normalized Wnt pathway inhibitory activity” value (Wnt signalling pathway; 11.111 microM)?
**A.** Its value is 0.1023.

**Q.** What about the “Normalized Wnt pathway inhibitory activity” value (Wnt signalling pathway; 33.333 microM) of the same compound?
**A.** The value was 0.0518.

**Q.** What about the “Normalized Wnt pathway inhibitory activity” value (Wnt signalling pathway; 100.000 microM) of the same compound?
**A.** Its value is 0.0132.

**Q.** And the IC50 (Wnt signalling pathway; Homo sapiens, HEK-293T, 6xTCF-luciferase, 5nM - 100 microM, 24 h incubation, read-out: IC50 of the Wnt pathway inhibitory activity)?
**A.** Its IC50 is 1.6 ± 0.9 µM.
